One compound from US11326207B2, “Sequencing using non-natural nucleotides” (Ultima Genomics, Inc., priority 2017, dated 2022) can be followed below.

SMILES strings stand for the structures.

Common to all, as to type: biochemical
Assay [1] has as its system Bst DNA polymerase v.2.0. The assay is described as follows: Flow cytometry assay: tolerance of dye-labeled dUTP* compared to dUTP analogs (Example 7). The note with it: for Tolerance: tolerance of dUTP* compared to the named dUTP^0. As to the method:
A solution of biotinylated template (2 microliters (μL) of 100 μM) and dye-labeled primer (4 μL of 100 μM) were combined in annealing buffer (40 μL; Tris (10 millimolar (mM)), EDTA (1 mM), NaCl (100 mM)). The resulting solution was heated to 95° C. and allowed to slowly cool to room temperature. A portion of this solution (8 μL) was mixed with streptavidin-labeled magnetic beads (4 μL of Invitrogen Dynabeads™ MyOne™ Streptavidin C1, 10 milligrams/milliliter (mg/mL); washed and eluant removed) and 2× bead wash buffer (8 μL; 10 mM Tris, pH 7.5, 1 mM EDTA, 2 M NaCl, 0.01% Triton X-100). After washing with TET solution (10 mM Tris, 1 mM EDTA, 0.05% Triton X-100) the beads were treated with Bst DNA polymerase v.2.0 (8 μL of 8 units (U)/μL; New England Biolabs) for five minutes. The excess enzyme was removed by washing with TET and the beads were suspended in 1×DNA polymerase buffer solution (20 mM Tris, pH 8, 10 mM NaCl, 2 mM MgCl2, 0.01% Triton X-100). The sequence of the biotinylated template was /52 Bio//iSp18/[…] […] (SEQ ID NO: 12), where “5” is indicative of the 5′-end of the oligo, 2-Bio indicates dual biotin, and iSP18 indicates a PEG spacer. […] […] (SEQ ID NO: 13), where “5” indicates the 5′-end of the oligo and JOE indicates a fluorescent dye attached to the oligo.
(§1) Next, a portion of the suspended magnetic beads (10 μL) were removed and placed in a PCR tube. A solution of nucleotides (10 μL) was added to the tube and the tube incubated for 40 seconds (s) at 50° C. The enzyme reaction was stopped with the addition of 5 μL of 50 mM EDTA. The beads were washed with 2×100 μL TET and resuspended in 20 μL TET. A portion of the bead solution (1 μL) was added to TE (200 μL) and the beads examined for red fluorescence on a flow cytometer (BD Accuri™, APC channel). The eluant of the remaining beads was removed and 40 μL of 95:5 formamide:10 mM EDTA was added to the beads. A portion of the formamide solution (1 μL) was added to 40 μL 95:5 formamide EDTA. The solutions were examined by capillary electrophoresis (CE) on an ABI 3730 instrument and the peaks identified and quantitated by peak height. The experimental protocol is summarized schematically in FIG. 2.
Tolerance was measured at two molar fractions, […] and 0.05, for each of the four dUTP analogs.

For assay [2], the system named is Bst DNA polymerase v.2.0. As to the kind of experiment: Competition assay: one base extension, capillary electrophoresis and flow cytometry (Example 6). The method, then:
as §1, with “The final concentrations of various nucleotides in the mixtures were 5 micromolar (μM). […] A solution of biotinylated template (2 microliters (μL) of 100 μM) and dye-labeled primer (4 μL of 100 μM) were combined in annealing buffer (40 μL; Tris (10 millimolar (mM)), EDTA (1 mM), NaCl (100 mM)). The resulting solution was heated to 95° C. and allowed to slowly cool to room temperature. […] New England Biolabs) for five minutes. […] Next,” for “Next,”, “A portion of the bead solution (1 μL) was added to TE (200 μL) and the beads examined for red fluorescence on a flow cytometer (BD Accuri™, APC channel).” left out

Another assay has as its system Bst 2.0 DNA polymerase. As to the kind of experiment: Homopolymer assays of nucleotide analogs (Example 10). The following applies: Natural Nucleotide T (TTP = 1); template oligo 332, primer 221L. The method, then:
A homopolymer assay was performed to investigate the effectiveness of E-dCTP and P-dUTP as nucleotide analogs of dCTP. 50 μl solutions containing a template nucleic acid molecule and primer and Bst 2.0 DNA polymerase are placed in a microplate reader and the fluorescence of the solution is measured in kinetic mode. A fluorescein attached to an oligonucleotide (indicated with a * in FIG. 7) was quenched in the substrate due to the proximity of complementary G bases. Addition of dCTP and/or dCTP analogs causes extension of the 3′ end of the primer, formation of double-stranded DNA, and unquenching of the fluorescein. The fluorescence increases with the addition of multiple nucleotides.
Additional homopolymer assays were performed according to the procedure outlined in Example 8 using different nucleotides and nucleotide analogs.
To test for dUTP or TTP incorporation, oligo 332 was used as a template and oligo 221L was used as a primer. To test for dCTP incorporation, oligo 333 was used as a template and oligo 221L was used as a primer. To test for dGTP incorporation, oligo 334 was used as a template and oligo 221L was used as a primer. To test for dATP incorporation, hairpin oligo 221 was used as both a primer and template.

`Cc1cn([C@H]2C[C@H](O)[C@@H](COP(=O)(O)OP(=O)(O)OP(=O)(O)O)O2)c(=O)[nH]c1=O` [TTP, thymidine triphosphate, reference compound]: the Apparent fraction in the assay with Bst DNA polymerase v.2.0 [1] (molar fraction dUTP* 0.05) was found to be 0.058; with Bst DNA polymerase v.2.0 [1] (molar fraction dUTP* 0.5) it was 0.42. The Red signal is 2,900 in the assay with Bst DNA polymerase v.2.0 [1] (molar fraction dUTP* 0.05, rest the named dUTP^0) and 21,000 in the assay with Bst DNA polymerase v.2.0 [1] (molar fraction dUTP* 0.5, rest the named dUTP^0). Moreover, the Tolerance came out at 1.2 in the assay with Bst DNA polymerase v.2.0 [1] (molar fraction dUTP* 0.05) and 0.8 in the assay with Bst DNA polymerase v.2.0 [1] (molar fraction dUTP* 0.5). Besides, the “CE product peaks of one base extension in competition with dUTP*” value with Bst DNA polymerase v.2.0 [2] (5 micromolar, 40 s at 50° C.) is “yields only a Pr-T peak”. Further, in the assay on Bst DNA polymerase v.2.0 [2] (beads before stripping), the “flow cytometry signal of one base extension in competition with dUTP*” value is “relatively low”. Moreover, the “Relative Rate in Homopolymer Assay” value with Bst 2.0 DNA polymerase is 1.
